Experimental data as given in patent publication US7476680B2, “Substituted heterocyclic compounds for treating multidrug resistance” (H. Lee Moffitt Cancer Center & Research Institute, Inc., priority 2000, dated 2009).

How the values were obtained:
MDR1-ATPase = molecular target: T1, MDR1-ATPase (Homo sapiens, UniProt P08183); assay: MDR1 ATPase assay (substrate potential for MDR1); format: biochemical; settings: isolated Sf9 cell membranes; for Ki: half-maximum inhibition of MDR1-ATPase stimulated by 30-40 micromolar verapamil
T1 construct: made in house; host or cells: Sf9 insect cells (baculovirus); isolated membranes
T1 sequence (P08183 whole entry): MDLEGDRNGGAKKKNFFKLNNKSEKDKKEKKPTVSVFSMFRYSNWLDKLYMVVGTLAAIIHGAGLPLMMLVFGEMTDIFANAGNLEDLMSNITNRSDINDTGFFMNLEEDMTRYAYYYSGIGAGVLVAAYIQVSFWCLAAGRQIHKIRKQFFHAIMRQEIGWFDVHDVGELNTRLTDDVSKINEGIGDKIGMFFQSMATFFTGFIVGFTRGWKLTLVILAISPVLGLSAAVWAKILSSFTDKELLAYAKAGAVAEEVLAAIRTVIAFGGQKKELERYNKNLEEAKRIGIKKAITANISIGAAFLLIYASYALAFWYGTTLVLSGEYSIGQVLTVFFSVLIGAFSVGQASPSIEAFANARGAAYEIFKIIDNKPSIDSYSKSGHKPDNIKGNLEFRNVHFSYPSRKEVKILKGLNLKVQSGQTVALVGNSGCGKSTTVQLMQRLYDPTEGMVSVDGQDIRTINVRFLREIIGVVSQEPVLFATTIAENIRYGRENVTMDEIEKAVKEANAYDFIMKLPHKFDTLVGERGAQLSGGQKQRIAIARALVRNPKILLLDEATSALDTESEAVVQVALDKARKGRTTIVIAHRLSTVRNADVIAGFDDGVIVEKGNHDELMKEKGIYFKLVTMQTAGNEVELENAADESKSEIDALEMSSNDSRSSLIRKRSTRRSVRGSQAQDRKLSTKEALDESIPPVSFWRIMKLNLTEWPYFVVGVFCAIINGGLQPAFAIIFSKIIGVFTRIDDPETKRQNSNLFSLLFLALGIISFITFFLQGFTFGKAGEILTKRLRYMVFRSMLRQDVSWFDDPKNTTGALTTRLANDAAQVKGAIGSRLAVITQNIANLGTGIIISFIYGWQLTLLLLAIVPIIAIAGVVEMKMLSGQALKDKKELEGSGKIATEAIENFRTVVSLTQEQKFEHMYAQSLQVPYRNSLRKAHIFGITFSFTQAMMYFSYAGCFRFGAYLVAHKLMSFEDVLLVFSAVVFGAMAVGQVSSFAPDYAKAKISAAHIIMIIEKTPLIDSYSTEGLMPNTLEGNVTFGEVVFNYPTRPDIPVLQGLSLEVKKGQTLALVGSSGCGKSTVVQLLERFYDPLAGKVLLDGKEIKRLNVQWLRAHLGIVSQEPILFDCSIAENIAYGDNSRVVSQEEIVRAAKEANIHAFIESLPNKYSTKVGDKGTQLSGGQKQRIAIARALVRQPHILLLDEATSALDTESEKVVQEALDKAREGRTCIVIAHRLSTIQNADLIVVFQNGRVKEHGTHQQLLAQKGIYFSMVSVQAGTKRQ
From the text: Method for Measuring Substrate Potential for MDR1 (MDR1 ATPase assay)
Recombinant baculovirus carrying the human MDR1 gene was generated and Sf9 cells infected with virus. The virus-infected cells were harvested and their membranes isolated. MDR1-ATPase activity of the isolated Sf9 cell membranes was estimated by measuring inorganic phosphate liberation as previously described (B. Sarkadi, J. Biol. Chem., 1992, 267:4854-4858). The differences between the ATPase activities measured in the absence and presence of 100 micromolar vanadate were determined as activity specific to MDR1. MDR modulator concentrations causing half-maximum activation (Ka) or half-maximum inhibition of the MDR1-ATPase stimulated by 30-40 micromolar verapamil (Ki) were determined.

NIH-MDR1-G185 cells = assay: Fluorescent substrate accumulation assay (BODIPY-FL Taxol); format: cell-based; settings: BODIPY-FL Taxol 500 nM, modulator 10 micromolar, 40 min at 37° C.; fluorescence with modulator / without modulator
Method: Fluorescent Substrate Accumulation Assay
NIH-MDR1-G185 cells (obtained from M. Gottesman, NIH) were harvested and resuspended in RPMI-1640 containing L-glutamine, 10% Cosmic Calf Serum and penicillin-streptomycin. Cell suspension aliquots of 175 microliters (1×10^5 cells) were added to individual wells of a 96 well microtiter plate and preincubated for 15 min at 37° C. with 20 microliters MDR modulator diluted in cell culture media to give a final concentration of 10 micromolar. Control wells received no modulating agent. BODIPY-FL Taxol (Molecular Probes, Eugene, Oreg.) was added to each well in 10 microliter aliquots to give a final concentration of 500 nM and cells were incubated for 40 min at 37° C. Cells were centrifuged at 100×g for 5 min at 4° C. and the cell pellet washed with 200 microliters cold PBS to remove fluorescent medium from wells. Cells were centrifuged once more, media removed, and cells resuspended in 200 microliters cold PBS. Fluorescence accumulation was measured in a fluorescence plate reader fitted with an excitation filter of 485 nm and an emission filter of 538 nm. BODIPY-FL taxol accumulation in the cells was calculated as follows: Accumulation Index=(fluorescence in NIH-MDR1-G185 cells in the presence of modulator)/(fluorescence in NIH-MDR1-G185 cells in absence of modulator)

[1] = concentration causing half-maximum activation of MDR1-ATPase

Row | Molecule | Substrate Potential Ka(MDR1-ATPase) (MDR1-ATPase; [1]) | Ki (MDR1-ATPase) | EC50 (MDR1-ATPase; concentration causing half-maximum activation of MDR1-ATPase, read-out: Substrate Potential Ka(MDR1-ATPase)) | Accumulation Index (NIH-MDR1-G185 cells)
1 | O=C(NCCCCc1ccccc1)[C@H]1CN(C[C@@H](O)COc2cccc3ncccc23)CC[C@H]1C(=O)NCCCCc1ccccc1 (stereo in doubt) [Example 11, cis-(R)-1-[2-hydroxy-3-(quinolin-5-yloxy)-propyl]-piperidine-3,4-dicarboxylic acid bis-[(4-phenyl-butyl)-amide]] | no activation | 20 nM |  | 
2 | O=C(NC(CCCc1ccccc1)CCCc1ccccc1)C1CCN(C[C@@H](O)COc2cccc3ncccc23)CC1 [Example 5, (R)-1-[2-hydroxy-3-(quinolin-5-yloxy)-propyl]-piperidine-4-carboxylic acid [4-phenyl-1-(3-phenyl-propyl)-butyl]-amide] | no activation | 300 nM |  | 
3 | CC1(C(=O)NC(CCCc2ccccc2)CCCc2ccccc2)CCN(C[C@@H](O)COc2cccc3ncccc23)CC1 [Example 50, (R)-1-[2-hydroxy-3-(quinolin-5-yloxy)-propyl]-methylpiperidine-4-carboxylic acid [4-phenyl-1-(3-phenyl-propyl)-butyl]-amide] |  |  |  | 10
4 | COc1cc(OC[C@H](O)CN2CCCC(C(=O)NC(CCCc3ccccc3)CCCc3ccccc3)C2)cc(OC)c1OC (stereo partly shown) [Example 15] | weak activation | > 50000 nM |  | 
5 | (R)-1-[2-hydroxy-3-(quinolin-5-yloxy)-propyl]-piperidine-4-carboxylic acid [4-(3-pyridyl-1-(3-pyridyl-propyl)-butyl]-amide [Example 53] |  |  |  | 8
6 | O=C(NC(CCCc1ccccc1)CCCc1ccccc1)C1CCCN(C[C@@H](O)COc2cccc3ncccc23)C1 (stereo partly shown) [Example 14] | no activation | 300 nM |  | 

Second part, led by results:

Row | Substrate Potential Ka(MDR1-ATPase) (MDR1-ATPase; [1]) | Ki (MDR1-ATPase) | EC50 (MDR1-ATPase; concentration causing half-maximum activation of MDR1-ATPase, read-out: Substrate Potential Ka(MDR1-ATPase)) | Molecule | Accumulation Index (NIH-MDR1-G185 cells)
7 | no activation | 1000 nM |  | O=C(C1CCN(C[C@@H](O)COc2cccc3ncccc23)CC1)N(Cc1ccccc1)Cc1ccccc1 [Example 36, (R)-1-[2-hydroxy-3-(quinolin-5-yloxy)-propyl]-piperidine-4-carboxylic acid dibenzyl amide] | 
8 | no activation | 500 nM |  | COc1cc(C(=O)C(=O)N2CCCC(C(=O)NC(CCCc3ccccc3)CCCc3ccccc3)C2)cc(OC)c1OC (stereo not shown) [Example 26, 1-(3,4,5-trimethoxyglyoxyl)-piperidine-3-carboxylic acid [4-phenyl-1-(3-phenyl-propyl)-butyl]-amide] | 
9 |  | 10 nM | 5 nM | O=C(NC1CCN(C[C@H](O)COc2cccc3ncccc23)CC1)C(CCCc1ccccc1)CCCc1ccccc1 (stereo in doubt) [Example 25, 5-phenyl-2-(3-phenyl-propyl)-pentanoic acid {1-[2-hydroxy-3-(quinolin-5-yloxy)-propyl]-piperidin-4-yl}-amide] | 
